Measured values reported in patent publication US20120255051A1, “HERBICIDE TOLERANT PLANTS” (priority 2009, published 2012).
Several values for one entry are separate records, joined by “and”; a condition that tells them apart may be missing. Equal entries are not always repeated.

Test system: Brassica plants comprising mutant AHAS alleles
Assay: Field trial, pre-planting treatment (0, 10, 20, 30 g a.i./ha), two locations in Canada: ERG, EST1, EST2, PPTOX, VIG1, VIG2, VIG3 scores
Format: in vivo, Brassica napus
Excerpt: Tests were set up and conducted to asses the growth and performance of plants comprising AHAS full knock-out alleles, and to further analyze the correlation between the presence of full knockout and missense AHAS genes in Brassica plants and plant growth and herbicide tolerance of the Brassica plants in the field. To this end, the Brassica plants identified in Example 1 and 2 were backcrossed two times with an elite parent line, and subsequently selfed twice to obtain homozygous plants (BC2S2). Plants were grown as row plots in a split plot design with three replicates (main plots=herbicide treatments, subplots=genotypes) at two locations in Canada. Treatment pre-planting was carried out on the soil about two days before sowing with a dose of 0 (treatment A), 10 (treatment B), 20 (treatment C) or 30 (treatment D) g a.i./ha of thiencarbazone methyl. Herbicide tolerance was measured by scoring for different parameters. The parameter emergence (ERG) was scored at the cotyledon stage on a scale 1-9, where 1 means late emergence and 9 means early emergence. Establishment was scored 14 days after sowing (EST1) and 21 days after sowing (EST2). Scores were from 1 to 9, where 1 is the worst establishment (least plants that emerged), and 9 is the best establishment (most plants emerged). Phytotoxicity (PPTOX) was determined after establishment. Plants were evaluated on a scale of 1 to 9, where 1=completely yellowing, 5=50% of plant is yellow and 9=no yellowing. The vigor scores (see above) were determined at 1-2 leaf stage (VIG1), 7 days after VIG1 (VIG2) and 14 days after VIG1 (VIG3). The average values (Av) and standard deviations (SD) of the scores for the different parameters are represented in Table 7a-g.
Further, the contribution of the knock-out allele to herbicide tolerance conferred by the missense allele was calculated. First, the scores were corrected for a possible effect of the growth per se, independent of herbicide treatment. To this end, the scores for treatments B, C and D were divided by the scores for treatment A for the same genotype and for the same parameter (corrected herbicide tolerance scores). Next, the effect of the knock-out allele to these corrected herbicide tolerance scores obtained by the missense allele was calculated. Therefore, the corrected herbicide tolerance scores for the missense—knock-out allele combination was divided by the corrected herbicide tolerance scores for the missense allele—wild-type combination. In case the knock-out allele has no effect on herbicide tolerance conferred by the missense allele, this ratio should be 1. In case the knock-out allele positively contributes to the herbicide tolerance conferred by the missense allele, this ratio should be higher than 1. The results for the contribution of the knock-out allele to herbicide tolerance conferred by the missense allele as calculated above are shown in table 8.

[1] = AHAS1 HETO108/AHAS3 HETO104, 30 g a.i./ha pre-planting (D), Location A
[2] = AHAS1 HETO108/AHAS3 HETO104, 30 g a.i./ha pre-planting (D), Location B
[3] = AHAS1 HETO108/AHAS3 HETO111, 10 g a.i./ha pre-planting (B), Location A
[4] = AHAS1 HETO108/AHAS3 HETO111, 10 g a.i./ha pre-planting (B), Location B
[5] = AHAS1 HETO108/AHAS3 HETO111, 20 g a.i./ha pre-planting (C), Location A
[6] = AHAS1 HETO108/AHAS3 HETO111, 20 g a.i./ha pre-planting (C), Location B
[7] = AHAS1 HETO108/AHAS3 HETO111, 30 g a.i./ha pre-planting (D), Location A
[8] = AHAS1 HETO108/AHAS3 HETO111, 30 g a.i./ha pre-planting (D), Location B
[9] = AHAS1 HETO108/AHAS3 WT, 10 g a.i./ha pre-planting (B), Location A
[10] = AHAS1 HETO108/AHAS3 WT, 10 g a.i./ha pre-planting (B), Location B
[11] = AHAS1 HETO108/AHAS3 WT, 20 g a.i./ha pre-planting (C), Location A
[12] = AHAS1 HETO108/AHAS3 WT, 20 g a.i./ha pre-planting (C), Location B
[13] = AHAS1 HETO108/AHAS3 WT, 30 g a.i./ha pre-planting (D), Location A
[14] = AHAS1 HETO108/AHAS3 WT, 30 g a.i./ha pre-planting (D), Location B
[15] = AHAS1 HETO112, AHAS3 HETO111, treatment B 10 g a.i./ha pre-planting, Location A
[16] = AHAS1 HETO112, AHAS3 HETO111, treatment B 10 g a.i./ha pre-planting, Location B
[17] = AHAS1 HETO112, AHAS3 HETO111, treatment C 20 g a.i./ha pre-planting, Location A
[18] = AHAS1 HETO112, AHAS3 HETO111, treatment C 20 g a.i./ha pre-planting, Location B
[19] = AHAS1 HETO112, AHAS3 HETO111, treatment D 30 g a.i./ha pre-planting, Location A
[20] = AHAS1 HETO112, AHAS3 HETO111, treatment D 30 g a.i./ha pre-planting, Location B
[21] = AHAS1 HETO112, AHAS3 WT, treatment B 10 g a.i./ha pre-planting, Location A

SMILES: COC(=O)c1csc(C)c1S(=O)(=O)NC(=O)n1nc(OC)n(C)c1=O [thiencarbazone-methyl, methyl 4-[(4,5-dihydro-3-methoxy-4-methyl-5-oxo-1H-1,2,4-triazol-1-yl)carbonylsulfamoyl]-5-methylthiophene-3-carboxylate]
- vigor2 (VIG2) score, Av (AHAS1 HETO108/AHAS3 HETO104, 20 g a.i./ha pre-planting (C), Location B): 6.33
- establishment (EST2) score, Av [1]: 5.33
- phytotoxicity (PPTOX) score, Av [1]: 5.00
- vigor2 (VIG2) score, Av [1]: 5.67
- establishment (EST2) score, Av [2]: 5.33
- phytotoxicity (PPTOX) score, Av [2]: 6.33
- vigor2 (VIG2) score, Av [2]: 6.00
- establishment (EST2) score, Av [3]: 6.33
- vigor1 (VIG1) score, Av [3]: 6.33
- vigor2 (VIG2) score, Av [3]: 7.33
- establishment (EST2) score, Av [4]: 6.00
- vigor2 (VIG2) score, Av [4]: 7.00
- establishment (EST2) score, Av [5]: 5.67
- phytotoxicity (PPTOX) score, Av [5]: 5.00
- vigor2 (VIG2) score, Av [5]: 6.33
- establishment (EST2) score, Av [6]: 5.33
- vigor1 (VIG1) score, Av [6]: 5.00
- vigor2 (VIG2) score, Av [6]: 6.33
- establishment (EST2) score, Av [7]: 6.00
- phytotoxicity (PPTOX) score, Av [7]: 6.00
- vigor1 (VIG1) score, Av [7]: 6.00
- vigor2 (VIG2) score, Av [7]: 7.00
- establishment (EST2) score, Av [8]: 4.00
- vigor2 (VIG2) score, Av [8]: 4.33
- establishment (EST2) score, Av [9]: 6.67 and 6.33
- phytotoxicity (PPTOX) score, Av [9]: 7.00
- vigor1 (VIG1) score, Av [9]: 7.00 and 6.00
- vigor2 (VIG2) score, Av [9]: 8.33 and 7.67
- establishment (EST2) score, Av [10]: 5.00 and 5.33
- phytotoxicity (PPTOX) score, Av [10]: 6.33 and 5.00
- vigor1 (VIG1) score, Av [10]: 6.00
- vigor2 (VIG2) score, Av [10]: 5.33 and 5.67
- establishment (EST2) score, Av [11]: 5.00 and 5.67
- phytotoxicity (PPTOX) score, Av [11]: 5.00
- vigor1 (VIG1) score, Av [11]: 6.00
- vigor2 (VIG2) score, Av [11]: 6.67
- phytotoxicity (PPTOX) score, Av [12]: 7.00
- vigor1 (VIG1) score, Av [12]: 5.00
- vigor2 (VIG2) score, Av [12]: 6.33 and 7.67
- establishment (EST2) score, Av [13]: 5.67 and 5.33
- phytotoxicity (PPTOX) score, Av [13]: 5.00
- vigor2 (VIG2) score, Av [13]: 6.33
- phytotoxicity (PPTOX) score, Av [14]: 5.00
- vigor1 (VIG1) score, Av [14]: 5.00
- vigor2 (VIG2) score, Av [14]: 5.00 and 5.33
- emergence (ERG) score Av [15]: 4.33
- establishment (EST1) score Av, 14 days after sowing [15]: 5.00
- emergence (ERG) score Av [16]: 4.33
- establishment (EST1) score Av, 14 days after sowing [16]: 5.67
- emergence (ERG) score Av [17]: 5.00
- establishment (EST1) score Av, 14 days after sowing [17]: 5.33
- emergence (ERG) score Av [18]: 4.00
- establishment (EST1) score Av, 14 days after sowing [18]: 5.00
- emergence (ERG) score Av [19]: 5.33
- establishment (EST1) score Av, 14 days after sowing [19]: 5.67
- emergence (ERG) score Av [20]: 3.00
- establishment (EST1) score Av, 14 days after sowing [20]: 3.67
- emergence (ERG) score Av [21]: 1.67
- establishment (EST1) score Av, 14 days after sowing [21]: 1.67
- emergence (ERG) score Av (AHAS1 HETO112, AHAS3 WT, treatment B 10 g a.i./ha pre-planting, Location B): 1.67
